From article PMC2290058 (The Journal of Cell Biology, 1992)

Columns and labels:
[1] = tested on: A375SM human melanoma cells; assay: Promotion of melanoma cell adhesion to coated substrata; type: cell-based; details: for amount of coated ligand that promoted half maximal cell adhesion: peptide/OVA conjugate on Immulon 1 polystyrene wells, 30-min assay
anti-FN-C/H-III IgG = assay: ELISA of purified anti-FN-C/H-III IgG; type: binding, rabbit; details: coated substrata; not shown
[2] = tested on: A375SM human melanoma cells; type: cell-based; details: for effect of ctDX (alphaDX) on cell adhesion to peptide: 1 mM inactive analogue, FN-C/H-III Fig. 5A, others not shown
[3] = tested on: A375SM human melanoma cells; type: cell-based
[4] = target: CSPG binding to 33-kD fragment; set-up: species or system human; details: inhibitor 500 ug/ml, 2 h, 4°C; CSPG about 7,000 dpm; buffer control <50
alpha4 integrin subunit = assay: Flow cytometry, cell surface expression of alpha4 integrin after treatment; type: cell-based, human; details: 1 mM xyloside 24 h (Fig. 2) or chondroitinase ABC (not shown); mAb P4C2
beta1 integrin subunit = assay: Flow cytometry, cell surface expression of beta1 integrin after treatment; type: cell-based, human; details: 1 mM xyloside 24 h (Fig. 2) or chondroitinase ABC (not shown); mAb P4C10
[5] = tested on: A375SM human melanoma cells; assay: Cytotoxicity check of treatments; type: cell-based; details: trypan blue exclusion; 3H-TdR or [35S]methionine incorporation; not shown
[6] = tested on: purified melanoma cell CSPG; assay: Binding of purified melanoma CSPG or CS to peptide/OVA affinity columns; set-up: species or system human
[7] = earlier work, ref McCarthy et al., 1988a, 1990, Haugen et al.; cited from earlier work
[8] = target: tryptic/catheptic 33-kD carboxyl-terminal heparin binding fragment of human plasma fibronectin A-chains (human); assay: ligand affinity column chromatography, competition
[9] = wells coated with 100 nmole FN-C/H-III/OVA (Fig. 5A)

Which results are given for YRVRVTPKEKTGPMKE [FN-C/H-III]?
promotion of melanoma cell adhesion ([1]; FN-C/H-III/OVA coated wells, 30-min assay (Fig. 4A)): promoted melanoma cell adhesion; amount of coated ligand that promoted half maximal cell adhesion [1]: 100 nmol; recognition by anti-FN-C/H-III IgG in ELISA (anti-FN-C/H-III IgG): specifically recognized; effect of /3DX on cell adhesion to FN-C/H-III ([2]; 1 mM /3DX, wells coated with 100 nmole FN-C/H-III/OVA (Fig. 5A)): inhibited; effect of ctDX (alphaDX) on cell adhesion to peptide [2]: not by heparitinase or t~DX; effect of chondroitinase ABC on cell adhesion to FN-C/H-III [2, 9]: inhibited; effect of heparitinase on cell adhesion to FN-C/H-III [2, 9]: not by heparitinase; effect of anti-alpha4 integrin mAb P4C2 on cell adhesion to peptide ([3]; P4C2, FN-C/H-III coated substrata): did not inhibit cell adhesion

Which “CSPG in flow through of 33-kD fragment affinity column” value [4] does the source give for “OVA/OVA: ovalbumin coupled to ovalbumin, control conjugate” here?
Its value is 123 dpm.

Which “cell surface alpha4 integrin level compared to untreated controls” value (alpha4 integrin subunit) does the source give for chondroitinase ABC here?
Its value is “identical”.

And the “cell surface beta1 integrin level compared to untreated controls” value (beta1 integrin subunit)?
Its value is “identical”.

And the “cytotoxic effect as cause of the inhibition of cell adhesion” value [5]?
The value was “not due to cytotoxic”.

For KNNQKSEPLIGRKKT [FN-C/H-II], which “amount of coated ligand that promoted half maximal cell adhesion” value [1] is on record?
Its value is 20 nmol.

And the “recognition by anti-FN-C/H-III IgG in ELISA” value (anti-FN-C/H-III IgG)?
Its value is “did not recognize”.

What about the “effect of ctDX (alphaDX) on cell adhesion to peptide” value [2] of the same compound?
Its value is “resistant”.

And the “inhibition of cell adhesion by chondroitinase ABC or /3DX” value ([2]; approximate, stated in text for chondroitinase ABC or /3DX)?
The value was ~ 50%.

And the “effect of anti-alpha5 integrin mAb P1D6 on cell adhesion to peptide” value ([3]; P1D6 (Fig. 8), mean of triplicate)?
The value was “did not inhibit”.

And the “inhibition of cell adhesion to peptide by anti-alpha4 integrin mAb P4C2” value ([3]; P4C2, not shown)?
Its value is 50-60%.

What about the “CSPG binding affinity compared with FN-C/H-III” value ([6]; affinity column, Discussion) of the same compound?
The value was “lower affinity than that observed for FN-C/H-III”.

What about the “binding of purified CSPG to peptide affinity column” value ([6]; peptide/OVA column, applied in 0.05 M NaCl (Fig. 7)) of the same compound?
The value was “bound purified CSPG”.

And the heparin binding [7]?
Its heparin binding is “bind heparin”.

For `O=[N+]([O-])c1ccc(O[C@H]2OC[C@@H](O)[C@H](O)[C@H]2O)cc1` [ctDX, p-Nitrophenyl-ct-o-xylopyranoside], which “cytotoxic effect as cause of the inhibition of cell adhesion” value [5] is on record?
The value was “not due to cytotoxic”.

With `O=[N+]([O-])c1ccc(O[C@@H]2OC[C@@H](O)[C@H](O)[C@H]2O)cc1` [/3DX, p-nitrophenyl-/3-o-xylopyranoside] as the compound, how does the “cell surface alpha4 integrin level compared to untreated controls” value (alpha4 integrin subunit) read?
The value was “identical”.

And the “cell surface beta1 integrin level compared to untreated controls” value (beta1 integrin subunit)?
Its value is “identical”.

What about the “cytotoxic effect as cause of the inhibition of cell adhesion” value [5] of the same compound?
The value was “not due to cytotoxic”.

Which radioactivity bound to the 33-kD fragment column, buffer alone [8] does the source give for “cell surface chondroitin sulfate proteoglycan (CSPG) purified from A375SM human melanoma cells” here?
The radioactivity bound to the 33-kD fragment column, buffer alone was 6980 dpm.
